Measured values from US7148328B2, “Compositions and methods for regulating autolytic processes in bacteria” (Trustees of Dartmouth College, priority 2001, dated 2006).

Columns and labels:
Assay type in all cases: cell-based, S. aureus
[1] = test system: RAT mutant; experiment: Subinhibitory antibiotic added to growing culture at mid-log phase, optical density followed; settings: 200 ng/ml penicillin (subinhibitory) added at OD650 nm of 0.5, mid-log phase, FIG. 1
Experimental: (§1) RAT plays a role in regulating autolytic activity of S. aureus. […] To evaluate whether the cell lysis of the RAT mutant was additive to the effect of a subinhibitory concentration of penicillin, 200 ng/ml of penicillin was added to a growing culture of the RAT mutant at an OD650 nm of 0.5, corresponding to the mid-log phase. […] This finding is consistent with the additive effect of penicillin upon the lytic propensity of the RAT mutant late in the growth cycle. […] In comparison to the parental strain without antibiotics, the RAT mutant with subinhibitory concentrations of penicillin has a 3–4 log kill.

[2] = test system: wild-type strain; experiment: as above; settings: 200 ng/ml penicillin (subinhibitory) added at OD650 nm of 0.5, mid-log phase, FIG. 1
[3] = test system: RAT mutant; experiment: Plating of antibiotic-treated cultures on agar plates without antibiotic selection (kill)
Experimental: as §1

penicillin
change in optical density (cell lysis) after addition of antibiotic [1]: further reduction in optical density | change in optical density (growth) after addition of antibiotic [2]: no increase in optical density | more kill of RAT mutant than the parental strain ([3]; cultures with subinhibitory antibiotic plated on agar without antibiotic selection, compared with parental strain): 1–2 log | kill of RAT mutant in comparison to the parental strain without antibiotics ([3]; subinhibitory concentrations of penicillin, compared with parental strain without antibiotics): 3–4 log
